Data published in PubChem BioAssay AID2060615 (Molecular Pharmacology Branch, DTP, NCI, 2025).

System: 496974-208-R-J2-PDC complex spheroids, growth % test/control
Assay: Anticancer human tumor 496974-208-R-J2-PDC patient-derived pancreatic carcinoma cell line growth inhibition [CLK]
Settings: for IC50: curve of first compound; for viability, T/C: stronger effect = lower value
Excerpt: A high-throughput screen of multi-cell type tumor spheroids was designed to identify active combinations of […] and targeted small molecules. Complex spheroids include a stromal component modeled by human endothelial cells (HUVEC) and fibroblasts modeled by human mesenchymal stem cells (MSCs). The concentration ranges selected for each drug and investigational agent were based upon clinically achievable concentrations if the clinical Cmax of the agent was known.
Compounds. The drugs and investigational agents: cirtuvivint (SM08502; NSC835563), CC-671 (NSC850746), vemurafenib (NSC761431), tapotoclax (NSC804041), sotorasib (NSC818433), adagrasib (NSC831453), MRTX-1133 (NSC836407), BAY2416964 (NSC825713), copanlisib (NSC816437), inavolisib (NSC800729), abemaciclib (NSC768073), osimertinib (NSC779217), entinostat (NSC756642), eltanexor (KPT-8602, NSC794443), venetoclax (NSC766270), ceralasertib (NSC777638), bortezomib (NSC756655), olaparib (NSC753686), talazoparib (NSC767125), alisertib (NSC759677), peposertib (NSC802822), gemcitabine (NSC613327), 5-fluorouracil (NSC19893), SN-38 (NSC673596), oxaliplatin (NSC266046), paclitaxel (NSC125973), and doxorubicin (NSC123127), were obtained from the National Cancer Institute (NCI) Developmental Therapeutics Program Chemical Repository. The FDA-approved anticancer drug set is available from the Developmental Therapeutics Program at https://dtp.cancer.gov/organization/dscb/obtaining/available plates.htm. […] The stock solutions were prepared in dimethyl sulfoxide (DMSO, Sigma-Aldrich, St. Louis, MO, cat. D2650), except for the platinum complexes which were prepared in saline (Quality Biological, Gaithersburg, MD, cat. 114-055-101), at 800-fold the tested concentration and stored at -70 degrees C prior to their use. All drugs and investigational agents were tested over a range starting from a high concentration at or near the clinical Cmax and decreasing in half-log increments. If the clinical Cmax for an agent had not been determined, the highest concentration tested was 10 microM.
Cell Culture. All cells were maintained in an incubator at 37 degrees C and 5% CO2 with 95% humidity. The PDC lines were cultured according to standard operating procedures established by the NCI PDMR. Briefly, all PDCs were thawed and cultured in Matrigel-coated flasks prepared with a working solution of 1X Ham's F-12 nutrient mix, without supplementation (Invitrogen, Waltham, MA, cat. 11765054), 100 U/mL penicillin-streptomycin (Invitrogen, cat. 15140122), and 2.5% Matrigel (Corning Inc., Corning, NY, cat. 354248) for the first three passages. The 947758-054-R-J2-PDC line was cultured in 6B/Colon 1A media, which includes advanced DMEM/F-12 (Thermo Fisher Scientific, cat. 12634028), 10 mM HEPES (Thermo Fisher Scientific, cat. 15630080), 1X GlutaMAX supplement (Thermo Fisher Scientific, cat. 35050061), 0.1 mg/mL primocin (InvivoGen, cat. ant-pm-2), 10% defined fetal bovine serum, heat inactivated (HyClone Laboratories Inc., cat. SH30070.03HI), 1.25 mM N-Acetyl-L-cysteine (Sigma-Aldrich, cat. A9165), 10 mM nicotinamide (Sigma-Aldrich, cat. N0636), 1X B-27 supplement (Thermo Fisher Scientific, cat. 17504044), 1X N-2 supplement (Thermo Fisher Scientific, cat. 17502048), and 10 microM Y-27632 dihydrochloride (Tocris Bioscience, cat. 1254). The 876862-298-R-J1-PDC was cultured in 6E media, which includes all 6B/Colon 1A media components plus 50% L-WRN conditioned media (ATCC, cat. CRL-3276), 50 ng/mL recombinant human EGF recombinant protein (hEGF; Thermo Fisher Scientific, cat. PHG0311), 10 ng/mL recombinant human fibroblast growth factor 10 (hGFG-10; PeproTech, cat. 100-26), 1 ng/mL recombinant human fibroblast growth factor 2 (hFGF-2; PeproTech, cat. 100-18B), and 1 µM prostaglandin E2 (PGE2; Tocris, cat. 2296). The 227483-062-R1-J1-PDC line was cultured in Panc media, containing all 6E components except hFGF-2, with the addition of 500 nM SB-431542 (Selleckchem, cat. S1067) and 10 nM gastrin (Tocris, cat. 3006). […]

[1] = second compound 0.0316 µM, first compound 0.0316 µM
[2] = second compound 0.0316 µM, first compound 0.1 µM
[3] = second compound 0.0316 µM, first compound 0.316 µM
[4] = second compound 0.0316 µM, first compound 1 µM
[5] = second compound 0.0316 µM, first compound 3.16 µM
[6] = second compound 0.0316 µM, first compound 10 µM
[7] = second compound 0.1 µM, first compound 0.0316 µM
[8] = second compound 0.1 µM, first compound 0.1 µM
[9] = second compound 0.1 µM, first compound 0.316 µM
[10] = second compound 0.1 µM, first compound 1 µM
[11] = second compound 0.1 µM, first compound 3.16 µM
[12] = second compound 0.1 µM, first compound 10 µM
[13] = second compound 0.316 µM, first compound 0.0316 µM
[14] = second compound 0.316 µM, first compound 0.1 µM
[15] = second compound 0.316 µM, first compound 0.316 µM
[16] = second compound 0.316 µM, first compound 1 µM
[17] = second compound 0.316 µM, first compound 3.16 µM
[18] = second compound 0.316 µM, first compound 10 µM
[19] = second compound 1 µM, first compound 0.0316 µM
[20] = second compound 1 µM, first compound 0.1 µM
[21] = second compound 1 µM, first compound 0.316 µM
[22] = second compound 1 µM, first compound 1 µM
[23] = second compound 1 µM, first compound 3.16 µM
[24] = second compound 1 µM, first compound 10 µM
[25] = second compound 3.16 µM, first compound 0.0316 µM
[26] = second compound 3.16 µM, first compound 0.1 µM
[27] = second compound 3.16 µM, first compound 0.316 µM
[28] = second compound 3.16 µM, first compound 1 µM
[29] = second compound 3.16 µM, first compound 3.16 µM
[30] = second compound 3.16 µM, first compound 10 µM
[31] = second compound 10 µM, first compound 0.0316 µM
[32] = second compound 10 µM, first compound 0.1 µM
[33] = second compound 10 µM, first compound 0.316 µM
[34] = second compound 10 µM, first compound 1 µM
[35] = second compound 10 µM, first compound 3.16 µM
[36] = second compound 10 µM, first compound 10 µM
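Note: spheroids exposed to the drugs for 7 days before readout.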
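Throughout, for viability, T/C: 100% = DMSO vehicle control wells.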

In the case of CCCS(=O)(=O)Nc1ccc(F)c(C(=O)c2c[nH]c3ncc(-c4ccc(Cl)cc4)cc23)c1F + CN1CCN(c2cc(C(=O)Nc3cc4cc(-c5cnn(C)c5)ccc4cn3)ccn2)CC1, the IC50 (second compound 0.0316 µM) is reported as 8.72 µM, the IC50 (second compound 0.1 µM) is reported as 8.61 µM and the IC50 (second compound 0.316 µM) is reported as < 0.0316 µM. The IC50 (second compound 1 µM) was < 0.0316 µM, the IC50 (second compound 3.16 µM) was < 0.0316 µM and the IC50 (second compound 10 µM) was < 0.0316 µM. The viability, T/C [1] was 100%, the viability, T/C [2] was 101% and the viability, T/C [3] was 104%. For the same molecule, the viability, T/C [4] was 112%, the viability, T/C [5] was 103% and the viability, T/C [6] was 42.9%. It also gave a viability, T/C [7] of 79.8%, a viability, T/C [8] of 92.3% and a viability, T/C [9] of 95.8%. For the same molecule, the viability, T/C [10] was 95.3%, the viability, T/C [11] was 82.8% and the viability, T/C [12] was 44.8%. It also gave a viability, T/C [13] of 7.31%, a viability, T/C [14] of 7.89% and a viability, T/C [15] of 8.26%. The viability, T/C [16] was 12.3%, the viability, T/C [17] was 13.7% and the viability, T/C [18] was 12.7%. The viability, T/C [19] was 0.4%, the viability, T/C [20] was 1.65% and the viability, T/C [21] was 0.49%. It also gave a viability, T/C [22] of 0.54%, a viability, T/C [23] of 0.67% and a viability, T/C [24] of 1.12%. The viability, T/C [25] was 0.36%, the viability, T/C [26] was 0.59% and the viability, T/C [27] was 1.11%. The viability, T/C [28] was 0.45%, the viability, T/C [29] was 1.82% and the viability, T/C [30] was 1.33%. For the same molecule, the viability, T/C [31] was 0.23%, the viability, T/C [32] was 0.7% and the viability, T/C [33] was 0.31%. The viability, T/C [34] was 1.08%, the viability, T/C [35] was 1.52% and the viability, T/C [36] was 0.99%.

For COC1C=CCC(C)C(C)S(=O)(=O)NC(=O)c2ccc3c(c2)N(CC2CCC21)CC1(CCCc2cc(Cl)ccc21)CO3 (centres undefined) + CN1CCN(c2cc(C(=O)Nc3cc4cc(-c5cnn(C)c5)ccc4cn3)ccn2)CC1, the IC50 (second compound 0.0316 µM) was 9.9 µM, the IC50 (second compound 0.1 µM) was 6.73 µM and the IC50 (second compound 0.316 µM) was < 0.0316 µM. The IC50 (second compound 1 µM) was < 0.0316 µM, the IC50 (second compound 3.16 µM) was < 0.0316 µM and the IC50 (second compound 10 µM) was < 0.0316 µM. The viability, T/C [1] was 93.4%, the viability, T/C [2] was 87.3% and the viability, T/C [3] was 86.7%. For the same molecule, the viability, T/C [4] was 76.2%, the viability, T/C [5] was 76.1% and the viability, T/C [6] was 48.3%. For the same molecule, the viability, T/C [7] was 79.9%, the viability, T/C [8] was 78.4% and the viability, T/C [9] was 75.4%. The viability, T/C [10] was 69.1%, the viability, T/C [11] was 66.3% and the viability, T/C [12] was 42%. The viability, T/C [13] was 6.55%, the viability, T/C [14] was 6.86% and the viability, T/C [15] was 6.27%. For the same molecule, the viability, T/C [16] was 5.01%, the viability, T/C [17] was 6.46% and the viability, T/C [18] was 9.02%. For the same molecule, the viability, T/C [19] was 0.46%, the viability, T/C [20] was 2.1% and the viability, T/C [21] was 1.64%. It also gave a viability, T/C [22] of 0.36%, a viability, T/C [23] of 0.6% and a viability, T/C [24] of 2.57%. The viability, T/C [25] was 0.56%, the viability, T/C [26] was 1.19% and the viability, T/C [27] was 0.48%. For the same molecule, the viability, T/C [28] was 0.35%, the viability, T/C [29] was 3.56% and the viability, T/C [30] was 1.06%. It also gave a viability, T/C [31] of 1.5%, a viability, T/C [32] of 0.48% and a viability, T/C [33] of 0.41%. The viability, T/C [34] was 0.29%, the viability, T/C [35] was 3.22% and the viability, T/C [36] was 0.75%.
